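A five-concentration, 48-hour dose response in 96-well plates underlies each endpoint, interpolated linearly between surrounding concentrations. TGI: total growth inhibition.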
Columns and labels:
Experiment in all cases: DTP human tumour cell line panel, 48 h
786-0 renal = test system: 786-0 renal
A498 renal = test system: A498 renal
ACHN renal = test system: ACHN renal
BT-549 breast = test system: BT-549 breast
CAKI-1 renal = test system: CAKI-1 renal
CCRF-CEM leukemia = test system: CCRF-CEM leukemia
COLO 205 colon = test system: COLO 205 colon
DU-145 prostate = test system: DU-145 prostate
EKVX NSCLC = test system: EKVX NSCLC
HCT-116 colon = test system: HCT-116 colon
HCT-15 colon = test system: HCT-15 colon
HL-60(TB) leukemia = test system: HL-60(TB) leukemia
HOP-92 NSCLC = test system: HOP-92 NSCLC
HS 578T breast = test system: HS 578T breast
HT29 colon = test system: HT29 colon
IGROV1 ovarian = test system: IGROV1 ovarian
KM12 colon = test system: KM12 colon
LOX IMVI melanoma = test system: LOX IMVI melanoma
MCF7 breast = test system: MCF7 breast
MDA-MB-231 breast = test system: MDA-MB-231 breast
MDA-MB-435 = test system: MDA-MB-435
MDA-N = test system: MDA-N
MOLT-4 leukemia = test system: MOLT-4 leukemia
OVCAR-8 ovarian = test system: OVCAR-8 ovarian
RPMI-8226 leukemia = test system: RPMI-8226 leukemia
RXF 393 renal = test system: RXF 393 renal
SF-268 CNS = test system: SF-268 CNS
SK-MEL-28 melanoma = test system: SK-MEL-28 melanoma
SK-MEL-5 melanoma = test system: SK-MEL-5 melanoma
SK-OV-3 ovarian = test system: SK-OV-3 ovarian
SN12C renal = test system: SN12C renal
SNB-19 CNS = test system: SNB-19 CNS
SNB-75 CNS = test system: SNB-75 CNS
SW-620 colon = test system: SW-620 colon
T-47D breast = test system: T-47D breast
TK-10 renal = test system: TK-10 renal
U251 CNS = test system: U251 CNS
UACC-257 melanoma = test system: UACC-257 melanoma
UACC-62 melanoma = test system: UACC-62 melanoma
UO-31 renal = test system: UO-31 renal

Measured: TGI

CNc1nncc2[nH]cnc12
> 100 µM: 786-0 renal | A498 renal | ACHN renal | BT-549 breast | CAKI-1 renal | CCRF-CEM leukemia | COLO 205 colon | DU-145 prostate | EKVX NSCLC | HCT-116 colon | HCT-15 colon | HL-60(TB) leukemia | HOP-92 NSCLC | HS 578T breast | HT29 colon | IGROV1 ovarian | KM12 colon | LOX IMVI melanoma | MCF7 breast | MDA-MB-231 breast | MDA-MB-435 | MDA-N | MOLT-4 leukemia | OVCAR-8 ovarian | RPMI-8226 leukemia | RXF 393 renal | SF-268 CNS | SK-MEL-28 melanoma | SK-MEL-5 melanoma | SK-OV-3 ovarian | SN12C renal | SNB-19 CNS | SNB-75 CNS | SW-620 colon | T-47D breast | TK-10 renal | U251 CNS | UACC-257 melanoma | UACC-62 melanoma | UO-31 renal

— PubChem BioAssay (NCI)
